In patent US10294202B2, “Pyrrolidinones as herbicides” (FMC Corporation, priority 2013, dated 2019):

Experiments:
giant foxtail = experiment: Test A pre-/postemergence herbicide test; format: in vivo, Setaria faberii; settings: for Foxtail, Giant plant response rating: Preemergence, visual rating on 0 to 100 scale (0 no effect, 100 complete control)
Outline: (§1)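 Visual injury ratings, 0 = no effect, 100 = complete control, taken ~10 days after treatment against untreated greenhouse controls. Preemergence: directed soil spray onto seeded loam/sand pots. Postemergence: spray onto plants at one- to two-leaf stage, 2–10 cm tall.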

pigweed = experiment: Test A pre-/postemergence herbicide test; format: in vivo, Amaranthus retroflexus; settings: for Plant response rating, Pigweed: 500 g ai/ha; for Pigweed plant response rating: Preemergence, 125 g ai/ha, visual rating on 0 to 100 scale (0 no effect, 100 complete control)
Outline: as §1

barnyardgrass [1] = experiment: Test A pre-/postemergence herbicide test; format: in vivo, Echinochloa crus-galli; settings: for Barnyardgrass plant response rating: Preemergence, visual rating on 0 to 100 scale (0 no effect, 100 complete control)
Outline: as §1

wheat = experiment: Test A pre-/postemergence herbicide test; format: in vivo, Triticum aestivum; settings: for Plant response rating, Wheat: 500 g ai/ha; for Wheat plant response rating: Preemergence, 125 g ai/ha, visual rating on 0 to 100 scale (0 no effect, 100 complete control)
Outline: as §1

velvetleaf = experiment: Test A pre-/postemergence herbicide test; format: in vivo, Abutilon theophrasti; settings: for Plant response rating, Velvetleaf: 500 g ai/ha; for Velvetleaf plant response rating: Preemergence, 125 g ai/ha, visual rating on 0 to 100 scale (0 no effect, 100 complete control)
Outline: as §1

rice = experiment: Test C flooded paddy test; format: in vivo, Oryza sativa; settings: Flood
Source text: (§2) Plant species in the flooded paddy test consisted of rice (Oryza sativa), sedge, umbrella (small-flower umbrella sedge, Cyperus difformis), ducksalad (Heteranthera limosa), and barnyardgrass (Echinochloa crus-galli) grown to the 2-leaf stage for testing. At time of treatment, test pots were flooded to 3 cm above the soil surface, treated by application of test compounds directly to the paddy water, and then maintained at that water depth for the duration of the test. Treated plants and controls were maintained in a greenhouse for 13 to 15 days, after which time all species were compared to controls and visually evaluated. Plant response ratings, summarized in Table C, are based on a scale of 0 to 100 where 0 is no effect and 100 is complete control. A dash (-) response means no test result.

sedge, umbrella = experiment: Test C flooded paddy test; format: in vivo, Cyperus difformis; settings: Flood
Source text: as §2

crabgrass, large = experiment: Test A pre-/postemergence herbicide test; format: in vivo, Digitaria sanguinalis; settings: for Crabgrass, Large plant response rating: Preemergence, visual rating on 0 to 100 scale (0 no effect, 100 complete control)
Outline: as §1

barnyardgrass [2] = experiment: Test C flooded paddy test; format: in vivo, Echinochloa crus-galli; settings: Flood
Source text: as §2

corn = experiment: Test A pre-/postemergence herbicide test; format: in vivo, Zea mays; settings: for Corn plant response rating: Preemergence, visual rating on 0 to 100 scale (0 no effect, 100 complete control)
Outline: as §1

morningglory = experiment: Test A pre-/postemergence herbicide test; format: in vivo, Ipomoea spp.; settings: for Plant response rating, Morningglory: 500 g ai/ha; for Morningglory plant response rating: Preemergence, 125 g ai/ha, visual rating on 0 to 100 scale (0 no effect, 100 complete control)
Outline: as §1

ducksalad = experiment: Test C flooded paddy test; format: in vivo, Heteranthera limosa; settings: Flood
Source text: as §2

[3] = Postemergence, 125 g ai/ha, 0 to 100 scale, 0 no effect, 100 complete control
[4] = Postemergence, 500 g ai/ha, 0 to 100 scale (0 no effect, 100 complete control)
[5] = preemergence, 500 g ai/ha, 0 to 100 scale
[6] = Postemergence, 0 to 100 scale (0 no effect, 100 complete control)
[7] = preemergence, 500 g ai/ha, 0 to 100 scale (0 no effect, 100 complete control)
[8] = 31 g ai/ha, scale of 0 to 100 where 0 is no effect and 100 is complete control, 13 to 15 days
[9] = 62 g ai/ha, scale of 0 to 100 where 0 is no effect and 100 is complete control, 13 to 15 days
[10] = 125 g ai/ha, scale of 0 to 100 where 0 is no effect and 100 is complete control, 13 to 15 days

O=C1NCC(c2cccc(F)c2)C1C(=O)Nc1ccccc1F (racemic) [Compound 1]
Plant response rating, Foxtail, Giant (giant foxtail; [3]): 20 | Plant response rating, Foxtail, Giant (giant foxtail; [4]): 60 | Foxtail, Giant plant response rating (giant foxtail; 125 g ai/ha): 70 | Plant response rating, Foxtail, Giant (giant foxtail; [5]): 90 | Plant response rating, Pigweed (pigweed; [6]): 0 | Pigweed plant response rating (pigweed): 0 | Plant response rating, Pigweed (pigweed; preemergence, 0 to 100 scale): 0 | Plant response rating, Barnyardgrass (barnyardgrass [1]; [3]): 50 | Plant response rating, Barnyardgrass (barnyardgrass [1]; [4]): 80 | Barnyardgrass plant response rating (barnyardgrass [1]; 125 g ai/ha): 30 | Plant response rating, Barnyardgrass (barnyardgrass [1]; [7]): 90 | Plant response rating, Wheat (wheat; [6]): 0 | Wheat plant response rating (wheat): 0 | Plant response rating, Wheat (wheat; preemergence, 0 to 100 scale): 0 | Plant response rating, Velvetleaf (velvetleaf; [6]): 0 | Velvetleaf plant response rating (velvetleaf): 0 | Plant response rating, Velvetleaf (velvetleaf; preemergence, 0 to 100 scale): 0 | Plant response rating, Rice (rice; [8]): 0 | Plant response rating, Rice (rice; [9]): 0 | Plant response rating, Rice (rice; [10]): 0 | Plant response rating, Rice (rice; 250 g ai/ha, scale 0 to 100): 0 | Plant response rating, Sedge, Umbrella (sedge, umbrella; [8]): 0 | Plant response rating, Sedge, Umbrella (sedge, umbrella; [9]): 0 | Plant response rating, Sedge, Umbrella (sedge, umbrella; [10]): 0 | Plant response rating, Sedge, Umbrella (sedge, umbrella; 250 g ai/ha, scale 0 to 100): 0 | Plant response rating, Crabgrass, Large (crabgrass, large; [3]): 30 | Plant response rating, Crabgrass, Large (crabgrass, large; [4]): 80 | Crabgrass, Large plant response rating (crabgrass, large; 125 g ai/ha): 90 | Plant response rating, Crabgrass, Large (crabgrass, large; [5]): 90 | Plant response rating, Barnyardgrass (barnyardgrass [2]; [8]): 0 | Plant response rating, Barnyardgrass (barnyardgrass [2]; [9]): 0 | Plant response rating, Barnyardgrass (barnyardgrass [2]; [10]): 0 | Plant response rating, Barnyardgrass (barnyardgrass [2]; 250 g ai/ha, scale 0 to 100): 0 | Plant response rating, Corn (corn; [3]): 0 | Plant response rating, Corn (corn; [4]): 0 | Corn plant response rating (corn; 125 g ai/ha): 0 | Plant response rating, Corn (corn; [5]): 20 | Plant response rating, Morningglory (morningglory; [6]): 0 | Morningglory plant response rating (morningglory): 0 | Plant response rating, Morningglory (morningglory; preemergence, 0 to 100 scale): 0 | Plant response rating, Ducksalad (ducksalad; [8]): 0 | Plant response rating, Ducksalad (ducksalad; [9]): 0 | Plant response rating, Ducksalad (ducksalad; [10]): 0 | Plant response rating, Ducksalad (ducksalad; 250 g ai/ha, scale 0 to 100): 0

O=C1NCC(c2cccc(C(F)(F)F)c2)C1C(=O)Nc1ccccc1C(F)(F)F (racemic) [Compound 4]
Plant response rating, Foxtail, Giant (giant foxtail; [3]): 60 | Plant response rating, Foxtail, Giant (giant foxtail; [4]): 70 | Foxtail, Giant plant response rating (giant foxtail; 125 g ai/ha): 80 | Plant response rating, Foxtail, Giant (giant foxtail; [5]): 90 | Plant response rating, Pigweed (pigweed; [6]): 50 | Pigweed plant response rating (pigweed): 0 | Plant response rating, Pigweed (pigweed; preemergence, 0 to 100 scale): 0 | Plant response rating, Barnyardgrass (barnyardgrass [1]; [3]): 60 | Plant response rating, Barnyardgrass (barnyardgrass [1]; [4]): 70 | Barnyardgrass plant response rating (barnyardgrass [1]; 125 g ai/ha): 60 | Plant response rating, Barnyardgrass (barnyardgrass [1]; [7]): 80 | Plant response rating, Wheat (wheat; [6]): 50 | Wheat plant response rating (wheat): 60 | Plant response rating, Wheat (wheat; preemergence, 0 to 100 scale): 70 | Plant response rating, Velvetleaf (velvetleaf; [6]): 0 | Velvetleaf plant response rating (velvetleaf): 0 | Plant response rating, Velvetleaf (velvetleaf; preemergence, 0 to 100 scale): 0 | Plant response rating, Rice (rice; [8]): 0 | Plant response rating, Rice (rice; [9]): 0 | Plant response rating, Rice (rice; [10]): 0 | Plant response rating, Rice (rice; 250 g ai/ha, scale 0 to 100): 0 | Plant response rating, Sedge, Umbrella (sedge, umbrella; [8]): 0 | Plant response rating, Sedge, Umbrella (sedge, umbrella; [9]): 0 | Plant response rating, Sedge, Umbrella (sedge, umbrella; [10]): 0 | Plant response rating, Sedge, Umbrella (sedge, umbrella; 250 g ai/ha, scale 0 to 100): 0 | Plant response rating, Crabgrass, Large (crabgrass, large; [3]): 60 | Plant response rating, Crabgrass, Large (crabgrass, large; [4]): 80 | Crabgrass, Large plant response rating (crabgrass, large; 125 g ai/ha): 90 | Plant response rating, Crabgrass, Large (crabgrass, large; [5]): 90 | Plant response rating, Barnyardgrass (barnyardgrass [2]; [8]): 0 | Plant response rating, Barnyardgrass (barnyardgrass [2]; [9]): 0 | Plant response rating, Barnyardgrass (barnyardgrass [2]; [10]): 30 | Plant response rating, Barnyardgrass (barnyardgrass [2]; 250 g ai/ha, scale 0 to 100): 40 | Plant response rating, Corn (corn; [3]): 0 | Plant response rating, Corn (corn; [4]): 50 | Corn plant response rating (corn; 125 g ai/ha): 0 | Plant response rating, Corn (corn; [5]): 0 | Plant response rating, Morningglory (morningglory; [6]): 30 | Morningglory plant response rating (morningglory): 0 | Plant response rating, Morningglory (morningglory; preemergence, 0 to 100 scale): 0 | Plant response rating, Ducksalad (ducksalad; [8]): 20 | Plant response rating, Ducksalad (ducksalad; [9]): 30 | Plant response rating, Ducksalad (ducksalad; [10]): 80 | Plant response rating, Ducksalad (ducksalad; 250 g ai/ha, scale 0 to 100): 85
